Measured values: US20240174618A1, “SUBSTITUTED (2-HETEROARYLOXYPHENYL)SULFONATES, SALTS THEREOF AND THEIR USE AS HERBICIDAL AGENTS” (Bayer Aktiengesellschaft, priority 2021, published 2024)

How the values were obtained:
Format in all cases: in vivo
[1] = test system: Triticum aestivum (TRZAS); assay: D. Pre-emergence effect on useful plants, TRZAS; conditions: useful plant
How it was run: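 Seeds sown in pots and covered with soil; WP or EC formulations sprayed on the soil surface as aqueous suspension/emulsion with 0.5% additive at 600 l/ha water. Plants grown in greenhouse; crop damage scored visually after about 3 weeks as % versus untreated controls (100% = dead, 0% = like control).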

Kochia scoparia (KCHSC) = assay: E. Herbicidal post-emergence efficacy, KCHSC
How it was run: (§1)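 Visual scoring against untreated plants was done roughly 3 weeks after spraying (0% = no effect, 100% = plants dead). Spray application at 320 g/ha or lower, 600 l/ha water with 0.5% additive, was made onto green parts of one-leaf-stage greenhouse plants grown 2-3 weeks in sandy loam.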

Setaria viridis (SETVI) = assay: E. Herbicidal post-emergence efficacy, SETVI
How it was run: as §1

Veronica persica (VERPE) = assay: E. Herbicidal post-emergence efficacy, VERPE
How it was run: as §1

[2] = test system: Digitaria sanguinalis (DIGSA); assay: C. Herbicidal pre-emergence efficacy, DIGSA; conditions: scored after about 3 weeks
How it was run: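 Pre-emergence test: formulated compounds sprayed as aqueous suspension or emulsion with 0.5% additive at 600 l/ha onto soil covering sown seeds, at rates corresponding to 320 g/ha or less. After about 3 weeks in greenhouse, efficacy scored visually as percent versus untreated controls (100% = plants dead).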

Lolium rigidum (LOLRI) = assay: A. Herbicidal pre-emergence efficacy, LOLRI
How it was run: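 Applied before emergence onto covering soil at rates of 1280 g/ha or less, using 600 L/ha spray water with 0.5% additive. Scoring: visual % efficacy after ~3 weeks, greenhouse.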

[3] = test system: Amaranthus retroflexus (AMARE); assay: E. Herbicidal post-emergence efficacy, AMARE
How it was run: as §1

[4] = test system: Amaranthus retroflexus (AMARE); assay: B. Herbicidal post-emergence efficacy, AMARE
How it was run: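 Weeds grown in sandy loam in greenhouse pots, sprayed at one-leaf stage (2–3 weeks after sowing) with WP or EC formulations as aqueous suspension/emulsion plus 0.5% additive at 600 L/ha water, rates up to 1280 g/ha. Visual efficacy rated about 3 weeks later versus untreated controls (0% = like control, 100% = dead).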

[5] = test system: Abutilon theophrasti (ABUTH); assay: E. Herbicidal post-emergence efficacy, ABUTH
How it was run: as §1

Row | SMILES | Pre-emergence efficacy against TRZAS in % ([1]; application rate 80 g/ha) [%] | Post-emergence efficacy against KCHSC in % (Kochia scoparia (KCHSC); application rate 320 g/ha) [%] | Post-emergence efficacy against SETVI in % (Setaria viridis (SETVI); application rate 320 g/ha) [%] | Post-emergence efficacy against VERPE in % (Veronica persica (VERPE); application rate 80 g/ha) [%] | Post-emergence efficacy against VERPE in % (Veronica persica (VERPE); application rate 320 g/ha) [%] | Pre-emergence efficacy against DIGSA ([2]; 80 g/ha) [%] | Pre-emergence efficacy against DIGSA ([2]; 320 g/ha) [%] | Pre-emergence efficacy against LOLRI (Lolium rigidum (LOLRI); dosage 320 g/ha) [%] | Pre-emergence efficacy against LOLRI (Lolium rigidum (LOLRI); dosage 1280 g/ha) [%] | Post-emergence efficacy against AMARE in % ([3]; application rate 320 g/ha) [%] | Pre-emergence efficacy against TRZAS in % ([1]; application rate 320 g/ha) [%] | Post-emergence efficacy against AMARE ([4]; 80 g/ha) [%] | Post-emergence efficacy against AMARE ([4]; 320 g/ha) [%] | Post-emergence efficacy against AMARE ([4]; 1280 g/ha) [%] | Post-emergence efficacy against ABUTH in % ([5]; application rate 320 g/ha) [%] | Post-emergence efficacy against AMARE in % ([3]; application rate 80 g/ha) [%] | Post-emergence efficacy against KCHSC in % (Kochia scoparia (KCHSC); application rate 80 g/ha) [%] | Post-emergence efficacy against SETVI in % (Setaria viridis (SETVI); application rate 80 g/ha) [%] | Post-emergence efficacy against ABUTH in % ([5]; application rate 80 g/ha) [%]
1 | Cc1cccc(Oc2ncc(F)cn2)c1OS(=O)(=O)CCC(F)(F)F [Example I-45] | 0 | 90 | 80 | 80 | 100 | 100 | 100 | 100 | 100 | 80 | – | – | – | – | – | – | – | – | –
2 | CC(C)CCS(=O)(=O)Oc1ccccc1Oc1ncc(Cl)cn1 [Example I-25] | 0 | – | 100 | 90 | 100 | 100 | 100 | 90 | 100 | 90 | 0 | 90 | 100 | 100 | 80 | – | – | – | –
3 | CCCCCS(=O)(=O)Oc1ccccc1Oc1ncc(Cl)cn1 [Example I-24] | 0 | – | 100 | 90 | 100 | 90 | 100 | – | 100 | 100 | 0 | 90 | 100 | 100 | 90 | 90 | – | – | –
4 | O=S(=O)(CCC(F)(F)F)Oc1c(Br)cccc1Oc1ncc(F)cn1 [Example I-43] | 0 | 100 | – | 100 | 100 | – | 100 | 100 | 100 | 100 | – | – | – | – | – | 100 | 90 | – | –
5 | O=S(=O)(CC1CC1)Oc1ccccc1Oc1ncc(Cl)cn1 [Example I-23] | 0 | – | 100 | 90 | 100 | 100 | 100 | 90 | 90 | 100 | – | 100 | 100 | 100 | 90 | 100 | – | 80 | –
6 | C=CCCS(=O)(=O)Oc1c(F)cccc1Oc1ncc(Cl)cn1 [Example I-50] | 0 | 100 | 90 | 90 | 100 | 100 | 100 | 90 | 90 | 100 | – | 90 | 90 | 100 | – | 100 | 80 | – | –
7 | O=S(=O)(CCC(F)(F)F)Oc1ccccc1Oc1ncc(Cl)cn1 [Example I-8] | 20 | – | 90 | 90 | 100 | 100 | 100 | 90 | 90 | 100 | – | 90 | 100 | 100 | 100 | 100 | – | 90 | 90
8 | Cc1cccc(OS(=O)(=O)CCCCl)c1Oc1ncc(Cl)cn1 [Example I-12] | 0 | – | 90 | 100 | 100 | 90 | 100 | – | 90 | 90 | – | – | 90 | 100 | 90 | 90 | – | – | –
9 | COCCS(=O)(=O)Oc1c(F)cccc1Oc1ncc(Cl)cn1 [Example I-52] | 0 | 100 | 80 | 100 | 100 | 80 | 100 | – | 100 | 100 | – | – | 90 | 90 | – | – | 90 | – | –
10 | O=S(=O)(CCC(F)=C(F)F)Oc1c(Cl)cccc1Oc1ncc(Cl)cn1 [Example I-73] | 0 | 90 | – | 90 | 100 | – | 100 | – | 90 | 100 | 20 | 100 | 100 | 100 | 80 | 80 | 90 | – | –
11 | O=S(=O)(CCl)Oc1ccccc1Oc1ncc(Cl)cn1 [Example I-9] | 20 | – | 100 | 80 | 90 | – | 100 | – | 90 | 100 | – | 90 | 100 | 100 | 80 | 100 | – | – | 80
12 | O=S(=O)(CCCCl)Oc1ccccc1Oc1ncc(Cl)cn1 [Example I-2] | 0 | – | 100 | 100 | 100 | – | – | 90 | 100 | 100 | – | 100 | 100 | 100 | 100 | 100 | – | 100 | –
